Test results published in patent US10947213B1 (Merck Patent GmbH, priority 2015, dated 2021).
Counter-ions that a name gives are not always drawn.

molecular target: T1, TLR7/NFKb HEK cells (Homo sapiens, UniProt Q9NYK1); assay: HEK Cell Assay (TLR7/NFKb reporter, Steady-Glo luciferase readout); assay type: cell-based; settings: 30 min compound preincubation, then R*48 agonist for 5 hours, read-out: Potency
T1 construct: expressed in transfected cells; host or cells: HEK cells (TLR7/NFKb reporter line)
T1 sequence (Q9NYK1 27-1049): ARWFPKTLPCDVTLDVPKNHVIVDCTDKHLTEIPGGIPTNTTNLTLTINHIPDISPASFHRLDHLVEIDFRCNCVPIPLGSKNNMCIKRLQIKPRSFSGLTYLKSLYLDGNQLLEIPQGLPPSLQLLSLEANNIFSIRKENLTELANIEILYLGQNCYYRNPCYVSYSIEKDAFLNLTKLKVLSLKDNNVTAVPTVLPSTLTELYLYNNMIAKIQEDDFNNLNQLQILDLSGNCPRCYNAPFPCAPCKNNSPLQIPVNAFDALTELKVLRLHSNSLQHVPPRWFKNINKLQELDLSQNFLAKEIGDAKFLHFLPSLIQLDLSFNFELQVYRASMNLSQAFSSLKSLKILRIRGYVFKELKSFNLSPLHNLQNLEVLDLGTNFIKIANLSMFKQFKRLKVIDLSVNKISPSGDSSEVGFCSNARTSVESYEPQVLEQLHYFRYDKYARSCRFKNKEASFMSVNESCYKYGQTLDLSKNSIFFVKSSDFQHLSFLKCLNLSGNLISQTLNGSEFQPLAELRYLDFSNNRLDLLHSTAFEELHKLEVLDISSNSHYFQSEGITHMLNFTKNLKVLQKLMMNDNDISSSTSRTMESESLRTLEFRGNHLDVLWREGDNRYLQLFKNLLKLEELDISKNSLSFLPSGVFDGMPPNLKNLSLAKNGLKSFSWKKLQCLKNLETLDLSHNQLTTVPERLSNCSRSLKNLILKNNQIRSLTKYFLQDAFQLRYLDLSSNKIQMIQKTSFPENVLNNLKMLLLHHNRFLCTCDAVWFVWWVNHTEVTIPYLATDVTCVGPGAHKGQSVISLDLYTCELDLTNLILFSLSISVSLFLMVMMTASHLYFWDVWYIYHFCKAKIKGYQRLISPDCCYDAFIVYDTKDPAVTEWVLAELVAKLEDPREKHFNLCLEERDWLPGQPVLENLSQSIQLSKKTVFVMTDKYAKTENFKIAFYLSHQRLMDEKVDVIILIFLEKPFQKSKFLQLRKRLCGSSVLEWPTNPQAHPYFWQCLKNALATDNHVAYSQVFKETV
In short: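 Steady-Glo luminescence after 5 h stimulation with R*48 agonist, following 30 min compound preincubation. Assay run in HEK cells carrying a TLR7/NFKb luciferase reporter, plated at 5000 cells/well and grown 24 h at 37° C (10% CO2) before treatment.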

IC50 [µM]	Structure (SMILES)
< 1	C[C@H]1C[C@@H](NC(=O)CN(C)C)CN(c2ccc(Cl)c3ncccc23)C1 [Compound 264, N-[(3R,5S)-1-(8-chloroquinolin-5-yl)-5-methylpiperidin-3-yl]-2-(dimethylamino)acetamide]
< 1	CC(O)C(=O)N[C@@H]1C[C@H](C)CN(c2ccc(C#N)c3nccnc23)C1 (stereo partly drawn) [Compound 265, N-[(3R,5S)-1-(8-cyanoquinoxalin-5-yl)-5-methylpiperidin-3-yl]-2-hydroxypropanamide]
< 1	C[C@H]1C[C@@H](NC(=O)CC2CCCN(C)C2)CN(c2ccc(C#N)c3nccnc23)C1 (stereo partly drawn) [Compound 266, N-[(3R,5S)-1-(8-cyanoquinoxalin-5-yl)-5-methylpiperidin-3-yl]-2-(1-methylpiperidin-3-yl)acetamide hydrochloride]
< 1	CC(C(=O)N[C@@H]1C[C@H](C)CN(c2ccc(C#N)c3nccnc23)C1)N1CC(N)C1 (stereo partly drawn) [Compound 267, 2-(3-aminoazetidin-1-yl)-N-[(3R,5S)-1-(8-cyanoquinoxalin-5-yl)-5-methylpiperidin-3-yl]propanamide]
< 1	C[C@H]1C[C@@H](NC(=O)C(N)C2CC2)CN(c2ccc(C#N)c3nccnc23)C1 (stereo partly drawn) [Compound 268, 2-amino-N-[(3R,5S)-1-(8-cyanoquinoxalin-5-yl)-5-methylpiperidin-3-yl]-2-cyclopropylacetamide]
< 1	C[C@H]1C[C@@H](NC(=O)CC2CCN(C)C2)CN(c2ccc(C#N)c3nccnc23)C1 (stereo partly drawn) [Compound 269, N-[(3R,5S)-1-(8-cyanoquinoxalin-5-yl)-5-methylpiperidin-3-yl]-2-(1-methylpyrrolidin-3-yl)acetamide]
< 1	C[C@H]1C[C@@H](NC(=O)CN2CC(O)C2)CN(c2ccc(C#N)c3nccnc23)C1 [Compound 270]
< 1	CC(C(=O)N[C@@H]1C[C@H](C)CN(c2ccc(C#N)c3nccnc23)C1)N1CC(O)C1 (stereo partly drawn) [Compound 271]
< 1	C[C@H]1C[C@@H](NC(=O)CC2CC2(F)F)CN(c2ccc(C#N)c3nccnc23)C1 (stereo partly drawn) [Compound 272, N-[(3R,5S)-1-(8-cyanoquinoxalin-5-yl)-5-methylpiperidin-3-yl]-2-(2,2-difluorocyclopropyl)acetamide]
1 to 10	CC(C(=O)N[C@@H]1C[C@H](C)CN(c2ccc(C#N)c3nccnc23)C1)N1CC(F)(F)C1 (stereo partly drawn) [Compound 273, N-[(3R,5S)-1-(8-cyanoquinoxalin-5-yl)-5-methylpiperidin-3-yl]-2-(3,3-difluoroazetidin-1-yl)propanamide]
< 1	C[C@H]1C[C@@H](NC(=O)CC2CNC2)CN(c2ccc(C#N)c3nccnc23)C1 [Compound 274, 2-(azetidin-3-yl)-N-[(3R,5S)-1-(8-cyanoquinoxalin-5-yl)-5-methylpiperidin-3-yl]acetamide]
< 1	C[C@H]1C[C@@H](NC(=O)CN2CCCN(C)CC2)CN(c2ccc(C#N)c3nccnc23)C1 [Compound 276, N-[(3R,5S)-1-(8-cyanoquinoxalin-5-yl)-5-methylpiperidin-3-yl]-2-(4-methyl-1,4-diazepan-1-yl)acetamide]
< 1	C[C@H]1C[C@@H](NC(=O)CC(C)(C)CN)CN(c2ccc(C#N)c3nccnc23)C1 [Compound 277, 4-amino-N-[(3R,5S)-1-(8-cyanoquinoxalin-5-yl)-5-methylpiperidin-3-yl]-3,3-dimethylbutanamide]
< 1	CC(O)C(=O)N[C@@H]1C[C@H](C)CN(c2ccc(C(F)(F)F)c3ncccc23)C1 (stereo partly drawn) [Compound 278, 2-hydroxy-N-[(3R,5S)-5-methyl-1-[8-(trifluoromethyl)quinolin-5-yl]piperidin-3-yl]propanamide]
< 1	C[C@H]1C[C@@H](NC(=O)CC2CCCN(C)C2)CN(c2ccc(C(F)(F)F)c3ncccc23)C1 (stereo partly drawn) [Compound 279, N-[(3R,5S)-5-methyl-1-[8-(trifluoromethyl)quinolin-5-yl]piperidin-3-yl]-2-(1-methylpiperidin-3-yl)acetamide]
< 1	C[C@H]1C[C@@H](NC(=O)CN2CC(N)C2)CN(c2ccc(C(F)(F)F)c3ncccc23)C1 [Compound 280, 2-(3-aminoazetidin-1-yl)-N-[(3R,5S)-5-methyl-1-[8-(trifluoromethyl)quinolin-5-yl]piperidin-3-yl]acetamide]
< 1	CC(C(=O)N[C@@H]1C[C@H](C)CN(c2ccc(C(F)(F)F)c3ncccc23)C1)N1CC(N)C1 (stereo partly drawn) [Compound 281, 2-(3-aminoazetidin-1-yl)-N-[(3R,5S)-5-methyl-1-[8-(trifluoromethyl)quinolin-5-yl]piperidin-3-yl]propanamide]
< 1	C[C@H]1C[C@@H](NC(=O)C(N)C2CC2)CN(c2ccc(C(F)(F)F)c3ncccc23)C1 (stereo partly drawn) [Compound 282, 2-amino-2-cyclopropyl-N-[(3R,5S)-5-methyl-1-[8-(trifluoromethyl)quinolin-5-yl]piperidin-3-yl]acetamide]
< 1	C[C@H]1C[C@@H](NC(=O)CC2CCN(C)C2)CN(c2ccc(C(F)(F)F)c3ncccc23)C1 (stereo partly drawn) [Compound 283, N-[(3R,5S)-5-methyl-1-[8-(trifluoromethyl)quinolin-5-yl]piperidin-3-yl]-2-(1-methylpyrrolidin-3-yl)acetamide hydrochloride]
< 1	C[C@H]1C[C@@H](NC(=O)CN2CC(O)C2)CN(c2ccc(C(F)(F)F)c3ncccc23)C1 [Compound 284]
< 1	CC(C(=O)N[C@@H]1C[C@H](C)CN(c2ccc(C(F)(F)F)c3ncccc23)C1)N1CC(O)C1 (stereo partly drawn) [Compound 285, 2-(3-hydroxyazetidin-1-yl)-N-[(3R,5S)-5-methyl-1-[8-(trifluoromethyl)quinolin-5-yl]piperidin-3-yl]propanamide]
< 1	C[C@H]1C[C@@H](NC(=O)CC2CC2(F)F)CN(c2ccc(C(F)(F)F)c3ncccc23)C1 (stereo partly drawn) [Compound 286, 2-(2,2-difluorocyclopropyl)-N-[(3R,5S)-5-methyl-1-[8-(trifluoromethyl)quinolin-5-yl]piperidin-3-yl]acetamide]
< 1	CC(C(=O)N[C@@H]1C[C@H](C)CN(c2ccc(C(F)(F)F)c3ncccc23)C1)N1CC(F)(F)C1 (stereo partly drawn) [Compound 287, 2-(3,3-difluoroazetidin-1-yl)-N-[(3R,5S)-5-methyl-1-[8-(trifluoromethyl)quinolin-5-yl]piperidin-3-yl]propanamide]
< 1	C[C@H]1C[C@@H](NC(=O)CC2CNC2)CN(c2ccc(C(F)(F)F)c3ncccc23)C1 [Compound 288, 2-(azetidin-3-yl)-N-[(3R,5S)-5-methyl-1-[8-(trifluoromethyl)quinolin-5-yl]piperidin-3-yl]acetamide]
< 1	CC(C(=O)N[C@@H]1C[C@H](C)CN(c2ccc(C(F)(F)F)c3ncccc23)C1)N1CCC(O)CC1 (stereo partly drawn) [Compound 289, 2-(4-hydroxypiperidin-1-yl)-N-[(3R,5S)-5-methyl-1-[8-(trifluoromethyl)quinolin-5-yl]piperidin-3-yl]propanamide]
< 1	C[C@H]1C[C@@H](NC(=O)CN2CCCN(C)CC2)CN(c2ccc(C(F)(F)F)c3ncccc23)C1 [Compound 290, 2-(4-methyl-1,4-diazepan-1-yl)-N-[(3R,5S)-5-methyl-1-[8-(trifluoromethyl)quinolin-5-yl]piperidin-3-yl]acetamide]
< 1	C[C@H]1C[C@@H](NC(=O)CC(C)(C)CN)CN(c2ccc(C(F)(F)F)c3ncccc23)C1 [Compound 291, 4-amino-3,3-dimethyl-N-[(3R,5S)-5-methyl-1-[8-(trifluoromethyl)quinolin-5-yl]piperidin-3-yl]butanamide]
1 to 10	CC(O)C(=O)N[C@@H]1C[C@H](C)CN(c2ccc(C(F)(F)F)c3nccnc23)C1 (stereo partly drawn) [Compound 292, 2-hydroxy-N-[(3R,5S)-5-methyl-1-[8-(trifluoromethyl)quinoxalin-5-yl]piperidin-3-yl]propanamide]
< 1	C[C@H]1C[C@@H](NC(=O)CC2CCCN(C)C2)CN(c2ccc(C(F)(F)F)c3nccnc23)C1 (stereo partly drawn) [Compound 293, N-[(3R,5S)-5-methyl-1-[8-(trifluoromethyl)quinoxalin-5-yl]piperidin-3-yl]-2-(1-methylpiperidin-3-yl)acetamide]

Structure (SMILES)	IC50 [µM]
CC(C(=O)N[C@@H]1C[C@H](C)CN(c2ccc(C#N)c3nccnc23)C1)N1CCC(O)CC1 (stereo partly drawn) [Compound 275, N-[(3R,5S)-1-(8-cyanoquinoxalin-5-yl)-5-methylpiperidin-3-yl]-2-(4-hydroxypiperidin-1-yl)propanamide]	< 1
